Measurements from ChEMBL document CHEMBL6109159, “Discovery of a Potent and Selective Protein Arginine Methyltransferase 5 (PRMT5) PROTAC Degrader” (J Med Chem, 2025).
Calls of active or inactive are those of the source. The rule behind the calls is not given here.

Experiments:
[1] = molecular target: T1, von Hippel-Lindau disease tumor suppressor/Protein arginine N-methyltransferase 5 (Homo sapiens, UniProt O14744+P40337); experiment: PROTAC activity at PRMT5/VHL in VHL KO human MDA-MB-468 cells assessed as degradation at 5 uM of compound after 24 hrs by Western blot analysis; type: cell-based
[2] = molecular target: T2, von Hippel-Lindau disease tumor suppressor/Methylosome protein WDR77 (Homo sapiens, UniProt Q9BQA1+P40337); experiment: PROTAC activity at MEP50/VHL in human MDA-MB-468 cells assessed as relative protein level at 0.5 uM measured after 24 hrs by Western blot analysis; type: cell-based
Target sequence in this assay (P40337 whole entry, looked up): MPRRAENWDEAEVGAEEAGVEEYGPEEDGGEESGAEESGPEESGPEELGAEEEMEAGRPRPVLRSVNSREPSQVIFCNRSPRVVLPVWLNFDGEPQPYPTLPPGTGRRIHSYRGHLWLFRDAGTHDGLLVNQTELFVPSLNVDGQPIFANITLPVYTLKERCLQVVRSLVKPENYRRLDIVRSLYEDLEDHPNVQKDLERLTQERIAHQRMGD
Target sequence in this assay (Q9BQA1 whole entry, looked up): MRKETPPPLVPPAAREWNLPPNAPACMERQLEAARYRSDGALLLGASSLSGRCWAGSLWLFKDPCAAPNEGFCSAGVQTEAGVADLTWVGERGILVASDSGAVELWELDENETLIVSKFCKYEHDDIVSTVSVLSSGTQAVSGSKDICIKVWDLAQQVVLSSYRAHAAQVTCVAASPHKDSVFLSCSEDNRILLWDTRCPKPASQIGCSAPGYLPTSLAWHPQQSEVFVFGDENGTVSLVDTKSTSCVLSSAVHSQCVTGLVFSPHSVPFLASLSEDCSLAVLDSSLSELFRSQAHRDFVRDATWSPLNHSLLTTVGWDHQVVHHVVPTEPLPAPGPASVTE

[3] = Plasma concentration in Swiss albino mouse at 50 mg/kg, ip measured after 8 hrs by LC-MS/MS analysis; type: ADME, organism-based
[4] = molecular target: T2, von Hippel-Lindau disease tumor suppressor/Methylosome protein WDR77; experiment: PROTAC activity at MEP50/VHL in VHL KO human MDA-MB-468 cells assessed as degradation at 5 uM of compound after 24 hrs by Western blot analysis; type: cell-based
Target sequence in this assay (P40337 whole entry, looked up): as the sequence (P40337 whole entry, looked up) above
Target sequence in this assay (Q9BQA1 whole entry, looked up): as the sequence (Q9BQA1 whole entry, looked up) above

[5] = molecular target: T2, von Hippel-Lindau disease tumor suppressor/Methylosome protein WDR77; experiment: PROTAC activity at MEP50/VHL in human MDA-MB-453 cells assessed as degradation at 5 uM after 3 days by Western blot analysis; type: cell-based; conditions: time 3.0 day
Target sequence in this assay (P40337 whole entry, looked up): as the sequence (P40337 whole entry, looked up) above
Target sequence in this assay (Q9BQA1 whole entry, looked up): as the sequence (Q9BQA1 whole entry, looked up) above

[6] = molecular target: T2, von Hippel-Lindau disease tumor suppressor/Methylosome protein WDR77; experiment: PROTAC activity at MEP50/VHL in human MCF7 cells assessed as degradation at 0.5 uM after 3 days by Western blot analysis; type: cell-based; conditions: time 3.0 day
Target sequence in this assay (P40337 whole entry, looked up): as the sequence (P40337 whole entry, looked up) above
Target sequence in this assay (Q9BQA1 whole entry, looked up): as the sequence (Q9BQA1 whole entry, looked up) above

[7] = molecular target: T1, von Hippel-Lindau disease tumor suppressor/Protein arginine N-methyltransferase 5; experiment: PROTAC activity at PRMT5/VHL in human MDA-MB-468 cells assessed as maximal degradation measured after 72 hrs by Western blot analysis relative to control; type: cell-based
[8] = molecular target: T2, von Hippel-Lindau disease tumor suppressor/Methylosome protein WDR77; experiment: PROTAC activity at MEP50/VHL in human MDA-MB-231 cells assessed as degradation at 0.5 uM after 3 days by Western blot analysis; type: cell-based; conditions: time 3.0 day
Target sequence in this assay (P40337 whole entry, looked up): as the sequence (P40337 whole entry, looked up) above
Target sequence in this assay (Q9BQA1 whole entry, looked up): as the sequence (Q9BQA1 whole entry, looked up) above

[9] = molecular target: T2, von Hippel-Lindau disease tumor suppressor/Methylosome protein WDR77; experiment: PROTAC activity at MEP50/VHL in human MDA-MB-453 cells assessed as degradation at 0.5 uM after 3 days by Western blot analysis; type: cell-based; conditions: time 3.0 day
Target sequence in this assay (P40337 whole entry, looked up): as the sequence (P40337 whole entry, looked up) above
Target sequence in this assay (Q9BQA1 whole entry, looked up): as the sequence (Q9BQA1 whole entry, looked up) above

PC-3 = experiment: Inhibition of sDMA (symmetric dimethylarginine) level in human PC-3 cells at 2 uM measured after 7 days by Western blot analysis; type: functional, cell-based; conditions: time 7.0 day
[10] = molecular target: T1, von Hippel-Lindau disease tumor suppressor/Protein arginine N-methyltransferase 5; experiment: PROTAC activity at PRMT5/VHL in human PC-3 cells assessed as degradation at 0.004 to 2.5 uM after 7 hrs by Western blot analysis; type: cell-based; conditions: dose 0.004-2.5 µM
MDA-MB-231 = experiment: Growth inhibition of human MDA-MB-231 cells assessed as cell viability measured after 5 days by CCK-8 assay; type: functional, cell-based; conditions: time 5.0 day
MDA-MB-468 = experiment: Inhibition of colony formation in human MDA-MB-468 cells incubated for 16 days by crystal violet staining based analysis; type: functional, cell-based; conditions: time 16.0 day
[11] = molecular target: T2, von Hippel-Lindau disease tumor suppressor/Methylosome protein WDR77; experiment: PROTAC activity at MEP50/VHL in human MDA-MB-468 cells assessed as degradation measured after 72 hrs by Western blot analysis relative to control; type: cell-based
Target sequence in this assay (Q9BQA1 whole entry): as the sequence (Q9BQA1 whole entry, looked up) above
Target sequence in this assay (P40337 whole entry): as the sequence (P40337 whole entry, looked up) above

[12] = molecular target: T1, von Hippel-Lindau disease tumor suppressor/Protein arginine N-methyltransferase 5; experiment: PROTAC activity at PRMT5/VHL in human MDA-MB-453 cells assessed as degradation at 5 uM after 3 days by Western blot analysis; type: cell-based; conditions: time 3.0 day
HCC70 = experiment: Growth inhibition of human HCC70 cells assessed as cell viability measured after 5 days by CCK-8 assay; type: functional, cell-based; conditions: time 5.0 day
[13] = molecular target: T2, von Hippel-Lindau disease tumor suppressor/Methylosome protein WDR77; experiment: PROTAC activity at MEP50/VHL in human MDA-MB-468 cells assessed as maximal degradation measured after 72 hrs by Western blot analysis relative to control; type: cell-based

T1 sequence (O14744 whole entry, looked up): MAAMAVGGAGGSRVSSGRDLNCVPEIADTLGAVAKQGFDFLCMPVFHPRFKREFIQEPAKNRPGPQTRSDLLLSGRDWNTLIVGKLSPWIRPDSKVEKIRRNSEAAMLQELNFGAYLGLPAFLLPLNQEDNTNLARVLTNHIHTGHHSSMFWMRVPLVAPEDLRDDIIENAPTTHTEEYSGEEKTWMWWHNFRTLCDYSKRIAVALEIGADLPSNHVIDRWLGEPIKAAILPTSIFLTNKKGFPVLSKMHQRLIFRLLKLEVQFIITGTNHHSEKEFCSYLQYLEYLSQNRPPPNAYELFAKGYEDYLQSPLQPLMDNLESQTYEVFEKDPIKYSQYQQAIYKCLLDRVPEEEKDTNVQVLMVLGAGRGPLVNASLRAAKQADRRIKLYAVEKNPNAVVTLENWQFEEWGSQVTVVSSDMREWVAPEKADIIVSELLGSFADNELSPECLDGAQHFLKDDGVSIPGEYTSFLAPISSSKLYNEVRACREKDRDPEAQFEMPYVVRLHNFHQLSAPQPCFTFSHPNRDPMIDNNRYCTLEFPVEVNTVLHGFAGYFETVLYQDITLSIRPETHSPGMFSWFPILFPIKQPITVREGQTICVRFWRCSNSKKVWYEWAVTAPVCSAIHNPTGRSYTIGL
T1 sequence (P40337 whole entry, looked up): as the sequence (P40337 whole entry, looked up) above

## Cc1ncsc1-c1ccc([C@H](CC(=O)NCCOCCOCCOCCOCCOCCC(=O)N2CCC(Nc3cc(C(=O)NC[C@H](O)CN4CCc5ccccc5C4)ncn3)CC2)NC(=O)[C@@H]2C[C@@H](O)CN2C(=O)[C@@H](NC(=O)C2(F)CC2)C(C)(C)C)cc1
[1]
  Activity: Not active; Complete Rescue Not Observed - Due To Incomplete Vhl Ko
[2]
  Activity: Active
[3]
  concentration at 8 h: 200 nM
[4]
  Activity: Not active; Complete Rescue Not Observed - Due To Incomplete Vhl Ko
[5]
  Activity: Active
[6]
  Activity: Active
[7]
  Emax: 86%
[8]
  Activity: Active
[9]
  Activity: Active
PC-3
  inhibition: Active
[10]
  Activity: Active
MDA-MB-231
  growth inhibition (GI): Active
MDA-MB-468
  Activity: Active
[11]
  DC50: 11.3 nM
[12]
  Activity: Active
HCC70
  growth inhibition (GI): Active
[13]
  Emax: 91.4%
